# Measured values as given in PubChem BioAssay AID292 (DTP/NCI, 2004).
# “And” between values parts separate entries of the source, which are not always exact repeats. Identical values can stand only once. Toxic doses and inconclusive results are not listed.
# Test system: B6C3F1 mice, ip Sarcoma M5076, median survival T/C
# Assay: NCI In Vivo Anticancer Drug Screen. Data for tumor model Sarcoma M5076 (intraperitoneal) in B6C3F1 mice
# Conditions: endpoint: median survival time, schedule: Q04DX004 (ip), higher = longer survival
# Procedure, shortened: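 Transplantable tumour in mice; compound-treated vs vehicle-treated groups. Read-out: survival. Value = treated/control ratio.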
# [1] = dose: 50.0 mg/kg/injection, vehicle: Klucel (hydroxypropylcellulose) (HPC)
# [2] = dose: 100.0 mg/kg/injection, vehicle: Klucel (hydroxypropylcellulose) (HPC)
# [3] = dose: 200.0 mg/kg/injection, vehicle: Klucel (hydroxypropylcellulose) (HPC)
# [4] = dose: 400.0 mg/kg/injection, vehicle: Klucel (hydroxypropylcellulose) (HPC)
# [5] = dose: 25.0 mg/kg/injection, vehicle: saline with Tween-80
# [6] = dose: 50.0 mg/kg/injection, vehicle: saline with Tween-80
# [7] = dose: 100.0 mg/kg/injection, vehicle: saline with Tween-80
# [8] = dose: 37.5 mg/kg/injection, vehicle: Klucel (hydroxypropylcellulose) (HPC)
# [9] = dose: 25.0 mg/kg/injection, vehicle: saline
# [10] = dose: 50.0 mg/kg/injection, vehicle: saline
# [11] = dose: 6.0 mg/kg/injection, vehicle: saline
compound,measurement,setting,value
CC1(C)C2CCC(C2)C1/C=C1/SC(=S)NC1=O (configuration not stated),T/C,"dose: 25.0 mg/kg/injection, vehicle: Klucel (hydroxypropylcellulose) (HPC)",95 % of control
same,T/C,[1],98 % of control
same,T/C,[2],90 % of control
same,T/C,[3],91 % of control
same,T/C,[4],87 % of control
NC(C(=O)O)C1=CCCC1 (configuration not stated),T/C,[5],102 % of control
same,T/C,[6],99 % of control
same,T/C,[7],98 % of control
same,T/C,"dose: 200.0 mg/kg/injection, vehicle: saline with Tween-80",98 % of control
same,T/C,"dose: 400.0 mg/kg/injection, vehicle: saline with Tween-80",87 % of control
CC(=O)C1C(=O)C(=O)N(Cc2ccccc2)C1=O (configuration not stated),T/C,"dose: 46.88 mg/kg/injection, vehicle: Klucel (hydroxypropylcellulose) (HPC)",98 % of control
same,T/C,"dose: 93.75 mg/kg/injection, vehicle: Klucel (hydroxypropylcellulose) (HPC)",95 % of control
same,T/C,"dose: 187.5 mg/kg/injection, vehicle: Klucel (hydroxypropylcellulose) (HPC)",99 % of control
same,T/C,"dose: 375.0 mg/kg/injection, vehicle: Klucel (hydroxypropylcellulose) (HPC)",98 % of control
COc1ccc(C(N)=O)cc1N=NN(C)C,T/C,"dose: 12.5 mg/kg/injection, vehicle: Klucel (hydroxypropylcellulose) (HPC)",118 % of control and 121 % of control
same,T/C,[2],154 % of control and 179 % of control
Cc1ccc(N=NN(C)C)cc1NC(=O)NCC(=O)OC(C)(C)C,T/C,"dose: 16.25 mg/kg/injection, vehicle: saline with Tween-80",103 % of control
same,T/C,"dose: 32.5 mg/kg/injection, vehicle: saline with Tween-80",98 % of control
same,T/C,"dose: 65.0 mg/kg/injection, vehicle: saline with Tween-80",111 % of control
same,T/C,"dose: 130.0 mg/kg/injection, vehicle: saline with Tween-80",108 % of control
same,T/C,"dose: 260.0 mg/kg/injection, vehicle: saline with Tween-80",118 % of control
Cc1ccc(Nc2nnc(CSc3ccc(Cl)cc3)s2)c(S(=O)(=O)O)c1,T/C,"dose: 37.5 mg/kg/injection, vehicle: saline with Tween-80",99 % of control
same,T/C,"dose: 75.0 mg/kg/injection, vehicle: saline with Tween-80",87 % of control
same,T/C,"dose: 150.0 mg/kg/injection, vehicle: saline with Tween-80",91 % of control
Nc1nc(N)c2c(ccc3c2ccn3Cc2cccc([N+](=O)[O-])c2)n1,T/C,"dose: 2.38 mg/kg/injection, vehicle: saline with Tween-80",98 % of control and 109 % of control
same,T/C,"dose: 4.69 mg/kg/injection, vehicle: saline with Tween-80",117 % of control
same,T/C,"dose: 4.75 mg/kg/injection, vehicle: saline with Tween-80",115 % of control
same,T/C,"dose: 9.38 mg/kg/injection, vehicle: saline with Tween-80",121 % of control
same,T/C,"dose: 9.5 mg/kg/injection, vehicle: saline with Tween-80",118 % of control
same,T/C,"dose: 38.0 mg/kg/injection, vehicle: saline with Tween-80",153 % of control and 155 % of control
Cn1c2ccccc2c2oc(CO)cc(=O)c21,T/C,[8],92 % of control
same,T/C,"dose: 75.0 mg/kg/injection, vehicle: Klucel (hydroxypropylcellulose) (HPC)",91 % of control
same,T/C,"dose: 150.0 mg/kg/injection, vehicle: Klucel (hydroxypropylcellulose) (HPC)",91 % of control
same,T/C,"dose: 300.0 mg/kg/injection, vehicle: Klucel (hydroxypropylcellulose) (HPC)",87 % of control
same,T/C,"dose: 600.0 mg/kg/injection, vehicle: Klucel (hydroxypropylcellulose) (HPC)",91 % of control
COc1ccc(C=C(C(=O)CCN(C)C)C(=O)CCN(C)C)cc1,T/C,[9],99 % of control
same,T/C,[10],101 % of control
same,T/C,"dose: 100.0 mg/kg/injection, vehicle: saline",102 % of control
same,T/C,"dose: 200.0 mg/kg/injection, vehicle: saline",102 % of control
CN(C)CCOCC(O)(c1ccccc1)c1ccccc1,T/C,"dose: 37.5 mg/kg/injection, vehicle: saline",100 % of control
same,T/C,"dose: 75.0 mg/kg/injection, vehicle: saline",100 % of control
COc1ccc2c(c1)n([O-])c1ccccc1[n+]2=O,T/C,[5],115 % of control
same,T/C,[6],117 % of control
same,T/C,[7],121 % of control
Cc1ccc(C2=CSC3=NCCN23)cc1Cl,T/C,"dose: 3.0 mg/kg/injection, vehicle: saline",103 % of control
same,T/C,[11],107 % of control
same,T/C,"dose: 12.0 mg/kg/injection, vehicle: saline",104 % of control
same,T/C,"dose: 24.0 mg/kg/injection, vehicle: saline",100 % of control
same,T/C,[9],104 % of control
same,T/C,[10],96 % of control
COc1c2c(c(O)c3c4c(c(C)cc13)C1OC3(C(OC)OC5CC(C)(O)C(OC6CC(C)(O)C(O)C(C)O6)C(C)O5)OC1C(OC)(O4)C31CO1)C(=O)C(O)CC2OC1CC(C)(O)C(OC(C)=O)C(C)O1 (configuration not stated),T/C,"dose: 0.03 mg/kg/injection, vehicle: saline",120 % of control
same,T/C,"dose: 15.0 micrograms/kg/injection, vehicle: saline",105 % of control
same,T/C,"dose: 30.0 micrograms/kg/injection, vehicle: saline",115 % of control
same,T/C,"dose: 60.0 micrograms/kg/injection, vehicle: saline",111 % of control and 118 % of control
same,T/C,"dose: 120.0 micrograms/kg/injection, vehicle: saline",114 % of control
same,T/C,"dose: 240.0 micrograms/kg/injection, vehicle: saline",115 % of control
O=C1CN2CCN3CC(=O)NC(=O)[C@H]3[C@@H]2C(=O)N1,T/C,"dose: 31.0 mg/kg/injection, vehicle: saline with Tween-80",93 % of control
same,T/C,"dose: 62.0 mg/kg/injection, vehicle: saline with Tween-80",94 % of control
same,T/C,"dose: 125.0 mg/kg/injection, vehicle: saline with Tween-80",93 % of control
same,T/C,"dose: 250.0 mg/kg/injection, vehicle: saline with Tween-80",100 % of control
same,T/C,"dose: 500.0 mg/kg/injection, vehicle: saline with Tween-80",98 % of control
CCN(CC)C(=Nc1ccc(Cl)c(Cl)c1)SC(NC=O)=C(Cl)Cl,T/C,"dose: 50.0 mg/kg/injection, vehicle: Klucel + Tween-80",104 % of control
same,T/C,"dose: 100.0 mg/kg/injection, vehicle: Klucel + Tween-80",97 % of control
same,T/C,"dose: 200.0 mg/kg/injection, vehicle: Klucel + Tween-80",91 % of control
O=C(CSc1nnc(CSc2ccc(Cl)cc2)n1-c1ccccc1)NC(=O)Nc1ccccc1,T/C,"dose: 4.69 mg/kg/injection, vehicle: Klucel (hydroxypropylcellulose) (HPC)",103 % of control
same,T/C,"dose: 9.38 mg/kg/injection, vehicle: Klucel (hydroxypropylcellulose) (HPC)",102 % of control
same,T/C,"dose: 18.75 mg/kg/injection, vehicle: Klucel (hydroxypropylcellulose) (HPC)",88 % of control
same,T/C,[8],88 % of control and 89 % of control
O=C1CSC(c2cccs2)N1c1nncs1 (configuration not stated),T/C,[1],102 % of control and 111 % of control
same,T/C,[2],98 % of control and 106 % of control
same,T/C,[3],98 % of control and 106 % of control
same,T/C,[4],111 % of control
same,T/C,"dose: 800.0 mg/kg/injection, vehicle: Klucel (hydroxypropylcellulose) (HPC)",122 % of control
C[C@H](N)C(=O)N[C@@H]1[C@H]2C(=C(O)C[C@@H](O)[C@@H]2O)C(=O)O[C@]1(C)C(Cl)Cl,T/C,"dose: 2.16 mg/kg/injection, vehicle: saline",159 % of control
same,T/C,"dose: 3.6 mg/kg/injection, vehicle: saline",179 % of control
same,T/C,[11],152 % of control and 164 % of control
same,T/C,"dose: 10.0 mg/kg/injection, vehicle: saline",235 % of control
